Among the test systems are 786-0; IGROV-1; NCI-H23; NCI-H522; OVCAR-3; OVCAR-4; OVCAR-5; RPMI-8226; SK-MEL-28; SK-MEL-5; SK-OV-3; SNB-19; UACC-257; UACC-62; UO-31; RXF 393.
Holding throughout (assay): growth of human tumour cells (NCI), 48 h

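Five compound concentrations were applied to cells in 96-well plates for 48 hours; endpoints were derived by simple linear interpolation of the resulting dose-response curve. GI50: concentration for 50% inhibition of growth.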 The source made the active and inactive calls. Rule as the data show it: active = GI50 up to about 1.1 µM and inactive = higher. A value given as a limit tells only on which side of the number the result lay.

Consider `C/C(CC(=O)CCC(=O)Nc1cccc(C(F)(F)F)c1)=N\NC(=O)NN`, for which the GI50 in the assay with 786-0, in the assay on IGROV-1, in the assay on NCI-H23, in the assay with NCI-H522, in the assay on OVCAR-3 and with OVCAR-4 was > 100 µM (inactive) in each case. The GI50 in the assay with OVCAR-5, in the assay on RPMI-8226, with SK-MEL-28, in the assay on SK-MEL-5, in the assay with SK-OV-3 and with SNB-19 was > 100 µM (inactive) throughout. The GI50 in the assay with UACC-257, with UACC-62 and in the assay with UO-31 was > 100 µM (inactive) each time.
Consider `O=C1CCCC/C1=C/C=C/c1ccccc1`, for which the GI50 is > 100 µM (inactive) with 786-0; > 100 µM (inactive) in the assay on IGROV-1; 51.4 µM (inactive) with NCI-H23; 30.7 µM (inactive) in the assay with NCI-H522; 66.4 µM (inactive) in the assay with OVCAR-3; 63.8 µM (inactive) in the assay with OVCAR-4. For the same compound, the GI50 in the assay on OVCAR-5 was > 100 µM (inactive); in the assay on RPMI-8226, 32.5 µM (inactive); in the assay on RXF 393, 47.4 µM (inactive); in the assay on SK-MEL-28, > 100 µM (inactive); with SK-MEL-5 it was 41.2 µM (inactive); in the assay with SK-OV-3, 55.7 µM (inactive). Besides, the GI50 in the assay with SNB-19 is > 100 µM (inactive); with UACC-257, 62.2 µM (inactive); in the assay with UACC-62, 52.1 µM (inactive); with UO-31 it was 44.4 µM (inactive).
On to `O=C(O[C@H]1[C@@H]2C=CO[C@@H](OC3OC(CO)C(O)C(O)C3O)[C@@H]2[C@@]2(CO)O[C@@H]12)c1ccc(O)c(O)c1` (stereo partly specified), for which the GI50 with 786-0, in the assay with IGROV-1, in the assay with NCI-H23, in the assay on NCI-H522, in the assay on OVCAR-3 and in the assay with OVCAR-4 was > 100 µM (inactive) throughout. The GI50 in the assay with OVCAR-5, in the assay on RPMI-8226, in the assay on RXF 393, in the assay on SK-MEL-28, with SK-MEL-5 and with SK-OV-3 was > 100 µM (inactive) throughout. The GI50 with SNB-19, in the assay with UACC-257, with UACC-62 and in the assay with UO-31 was > 100 µM (inactive) each time.
Turning to `CCOC(=O)c1ccc(/N=C\c2ccc(N(CCC#N)CCC#N)cc2)cc1`, the GI50 in the assay with 786-0 is 99.5 µM (inactive); with IGROV-1, 81.8 µM (inactive); in the assay on NCI-H23, > 100 µM (inactive); with NCI-H522, 49.5 µM (inactive); in the assay on OVCAR-3 it was > 100 µM (inactive); in the assay on OVCAR-4, 41.6 µM (inactive). The GI50 was > 100 µM (inactive) in the assay with OVCAR-5; 65.6 µM (inactive) in the assay on RPMI-8226; > 100 µM (inactive) with RXF 393; > 100 µM (inactive) in the assay on SK-MEL-28; 78.3 µM (inactive) with SK-MEL-5; > 100 µM (inactive) with SK-OV-3. The GI50 with SNB-19 is > 100 µM (inactive); with UACC-257, > 100 µM (inactive); with UACC-62, 21.5 µM (inactive); in the assay on UO-31, 27.2 µM (inactive).
For the compound `Cc1nc(C(N)=S)sc1C(=O)/C=C/c1c(O)ccc2ccccc12`, the GI50 in the assay on 786-0 was > 74.3 µM (inactive); in the assay with IGROV-1, > 100 µM (inactive); with NCI-H23, > 67.5 µM (inactive); in the assay on NCI-H522, 26.9 µM (inactive); with OVCAR-3, 36.6 µM (inactive); in the assay with OVCAR-4, > 100 µM (inactive). Moreover, the GI50 with OVCAR-5 is > 100 µM (inactive); in the assay with RPMI-8226 it was 29.4 µM (inactive); with RXF 393, 31.8 µM (inactive); in the assay on SK-MEL-28, > 71.6 µM (inactive); in the assay with SK-MEL-5 it was 32.4 µM (inactive); with SK-OV-3, > 100 µM (inactive). The GI50 with SNB-19 is > 100 µM (inactive); in the assay on UACC-257, > 75.9 µM (inactive); in the assay on UACC-62, 29.6 µM (inactive); in the assay on UO-31 it was 58.2 µM (inactive).
With `CCCCCCCCCCNCCSSCc1ccc(Cl)cc1`, the GI50 in the assay on 786-0 was 5.71 µM (inactive); in the assay on IGROV-1 it was 2.94 µM (inactive); in the assay on NCI-H522 it was 1.61 µM (inactive); in the assay with OVCAR-3, 1.96 µM (inactive); in the assay on OVCAR-4, 1.71 µM (inactive); in the assay on OVCAR-5, 1.91 µM (inactive). Besides, the GI50 with RXF 393 was 3.3 µM (inactive); in the assay with SK-MEL-28, 0.366 µM (active); in the assay on SK-MEL-5, 0.509 µM (active); in the assay on SK-OV-3, 3.84 µM (inactive); in the assay on SNB-19, 1.71 µM (inactive); with UACC-257, 0.714 µM (active). Besides, the GI50 in the assay on UACC-62 is 0.407 µM (active); in the assay with UO-31 it was 2.25 µM (inactive).
Regarding `Cc1ccc(C(=O)/C=C/c2ccccc2Cl)cc1`, the GI50 was 16.2 µM (inactive) in the assay with 786-0; 18.4 µM (inactive) in the assay on IGROV-1; 19 µM (inactive) with NCI-H23; 14 µM (inactive) in the assay with NCI-H522; 17.3 µM (inactive) in the assay on OVCAR-3; 17.1 µM (inactive) in the assay with OVCAR-4. The GI50 is 17.1 µM (inactive) with OVCAR-5; 15.8 µM (inactive) in the assay with RPMI-8226; 14.2 µM (inactive) with SK-MEL-28; 20.9 µM (inactive) with SK-MEL-5; 39.4 µM (inactive) with SK-OV-3; 18.4 µM (inactive) in the assay with SNB-19. For the same compound, the GI50 is 15.4 µM (inactive) in the assay on UACC-257, 14.3 µM (inactive) in the assay on UACC-62 and 18.6 µM (inactive) with UO-31.
For `CCOc1ccc(NC(=O)C(=O)CC(=O)C2=C(C)Nc3ccccc3S2)cc1`, the GI50 with 786-0, in the assay with IGROV-1, in the assay on NCI-H23, with NCI-H522, in the assay on OVCAR-3 and with OVCAR-4 was > 50 µM (inactive) throughout. Moreover, the GI50 in the assay with OVCAR-5, in the assay on RPMI-8226, in the assay on RXF 393, in the assay on SK-MEL-28, with SK-MEL-5 and with SK-OV-3 was > 50 µM (inactive) each time. For the same compound, the GI50 in the assay with SNB-19, with UACC-257, with UACC-62 and in the assay on UO-31 was > 50 µM (inactive) in each case.
For `CC(=O)OCC1OC(n2c(=O)n(-c3ccccc3)c(=O)c3ccccc32)C(OC(C)=O)C(OC(C)=O)C1OC(C)=O` (stereo unspecified), the GI50 with 786-0, in the assay with IGROV-1, in the assay on NCI-H23, with NCI-H522, with OVCAR-3 and in the assay on OVCAR-4 was > 100 µM (inactive) throughout. Moreover, the GI50 in the assay on OVCAR-5 was > 100 µM (inactive); in the assay with RPMI-8226 it was 73.8 µM (inactive); with RXF 393 it was > 100 µM (inactive); with SK-MEL-28, > 100 µM (inactive); in the assay with SK-MEL-5, > 100 µM (inactive); in the assay on SK-OV-3, > 100 µM (inactive). Besides, the GI50 with SNB-19, in the assay with UACC-257, in the assay with UACC-62 and with UO-31 was > 100 µM (inactive) in each case.
`NC1=NN(c2ccccc2)C(=O)C1C(=O)C(=O)Nc1cccc(C(F)(F)F)c1` (stereo unspecified): the GI50 in the assay with 786-0, in the assay on IGROV-1, in the assay with NCI-H23, in the assay with NCI-H522, in the assay on OVCAR-3 and in the assay with OVCAR-4 was > 100 µM (inactive) in each case. Besides, the GI50 with OVCAR-5, in the assay with RPMI-8226, with SK-MEL-5, in the assay on SK-OV-3, in the assay with SNB-19 and in the assay with UACC-257 was > 100 µM (inactive) each time. Further, the GI50 with UACC-62 and with UO-31 was > 100 µM (inactive) throughout.
Consider `C#CC[N+](C)(CC#C)CC#C`, for which the GI50 with 786-0, in the assay on IGROV-1, in the assay with NCI-H23, in the assay with NCI-H522, in the assay on OVCAR-3 and in the assay with OVCAR-4 was > 100 µM (inactive) each time. For the same compound, the GI50 in the assay on OVCAR-5, with RPMI-8226, in the assay with RXF 393, with SK-MEL-28, in the assay on SK-MEL-5 and with SK-OV-3 was > 100 µM (inactive) each time. Besides, the GI50 in the assay on SNB-19, in the assay on UACC-257, in the assay on UACC-62 and in the assay on UO-31 was > 100 µM (inactive) in each case.
Take `Cn1c(=O)nc2n(-c3cccc(Cl)c3)c3ccccc3nc-2c1=O`: the GI50 in the assay with 786-0 was 15.6 µM (inactive); in the assay with IGROV-1, 24.8 µM (inactive); in the assay with NCI-H23, 5.9 µM (inactive); in the assay with NCI-H522, 15.1 µM (inactive); in the assay with OVCAR-3, 2.45 µM (inactive); with OVCAR-4 it was 11.6 µM (inactive). Besides, the GI50 in the assay with OVCAR-5 was 22.5 µM (inactive); with RPMI-8226, 15.5 µM (inactive); with RXF 393, 21.5 µM (inactive); in the assay on SK-MEL-5, 10.5 µM (inactive); in the assay with SK-OV-3, 78.9 µM (inactive); with SNB-19, > 10 µM (inactive). Further, the GI50 in the assay with UACC-257 is 10.9 µM (inactive); in the assay with UACC-62 it was 2.68 µM (inactive); in the assay on UO-31, 34.9 µM (inactive).
Regarding `Cc1cc(OC(=O)c2c(C)cc(OC(=O)c3c(C)cc(O)cc3O)cc2O)cc(O)c1C(=O)O` [GYROPHORIC ACID], the GI50 in the assay with 786-0, in the assay with IGROV-1, in the assay with NCI-H23, in the assay with NCI-H522, in the assay with OVCAR-3 and with OVCAR-4 was > 100 µM (inactive) each time. Also, the GI50 with OVCAR-5, in the assay on RPMI-8226, in the assay on RXF 393, in the assay with SK-MEL-28, in the assay on SK-MEL-5 and in the assay with SK-OV-3 was > 100 µM (inactive) in each case. Further, the GI50 in the assay with SNB-19 is > 100 µM (inactive); in the assay with UACC-257, > 100 µM (inactive); with UACC-62 it was > 100 µM (inactive); with UO-31, 76.4 µM (inactive).
